molecular target: FLT1 (human) (UniProt P17948); assay: radiometric filter-binding kinase assay, Kinase HotSpot; details: compound 0.5 µM; ATP 10 µM
Sequence (P17948 whole entry, looked up): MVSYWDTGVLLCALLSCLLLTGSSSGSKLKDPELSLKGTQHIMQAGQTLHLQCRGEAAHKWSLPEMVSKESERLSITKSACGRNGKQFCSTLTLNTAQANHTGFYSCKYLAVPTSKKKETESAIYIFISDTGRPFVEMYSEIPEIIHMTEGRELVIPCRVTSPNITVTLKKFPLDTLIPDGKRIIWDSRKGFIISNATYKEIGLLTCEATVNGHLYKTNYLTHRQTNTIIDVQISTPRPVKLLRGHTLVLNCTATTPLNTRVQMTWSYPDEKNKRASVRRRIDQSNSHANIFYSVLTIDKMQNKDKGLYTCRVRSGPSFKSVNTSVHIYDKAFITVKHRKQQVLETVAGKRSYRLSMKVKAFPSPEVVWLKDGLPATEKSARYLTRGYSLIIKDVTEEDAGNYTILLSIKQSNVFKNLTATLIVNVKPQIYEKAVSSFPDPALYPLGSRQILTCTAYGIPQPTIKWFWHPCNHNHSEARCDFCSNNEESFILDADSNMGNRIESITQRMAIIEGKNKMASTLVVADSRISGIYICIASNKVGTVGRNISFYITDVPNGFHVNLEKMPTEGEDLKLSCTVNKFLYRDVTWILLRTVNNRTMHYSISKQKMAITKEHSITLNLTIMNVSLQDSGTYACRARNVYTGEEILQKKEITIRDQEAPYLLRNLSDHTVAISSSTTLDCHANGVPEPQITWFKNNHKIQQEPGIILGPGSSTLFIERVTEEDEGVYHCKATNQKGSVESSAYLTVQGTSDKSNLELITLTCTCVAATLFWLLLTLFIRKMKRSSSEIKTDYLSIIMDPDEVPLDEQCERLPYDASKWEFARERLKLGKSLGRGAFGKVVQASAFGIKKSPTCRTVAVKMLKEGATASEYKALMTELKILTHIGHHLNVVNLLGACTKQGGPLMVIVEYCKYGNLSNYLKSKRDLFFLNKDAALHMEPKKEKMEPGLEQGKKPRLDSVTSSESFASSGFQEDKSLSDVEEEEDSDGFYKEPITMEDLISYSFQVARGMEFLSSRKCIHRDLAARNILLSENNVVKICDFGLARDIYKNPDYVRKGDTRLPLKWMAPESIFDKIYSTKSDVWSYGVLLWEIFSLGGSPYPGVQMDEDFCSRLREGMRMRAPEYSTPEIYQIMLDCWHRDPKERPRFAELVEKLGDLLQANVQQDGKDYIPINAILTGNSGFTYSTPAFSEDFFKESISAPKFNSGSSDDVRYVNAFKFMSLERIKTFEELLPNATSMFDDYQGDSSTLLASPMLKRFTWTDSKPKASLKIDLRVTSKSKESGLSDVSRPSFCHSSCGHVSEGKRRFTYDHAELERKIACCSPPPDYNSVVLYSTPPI

Compound	residual activity
CCN1/C(=C/C(C)=O)Sc2ccc(OC)cc21	88.4%
COc1ccc(-c2cnc3c(-c4ccsc4)cnn3c2)cc1	75.7%
C#Cc1cccc(Nc2ncnc3cc(OCCOC)c(OCCOC)cc23)c1	87.5%
O=C1Nc2cc(Br)ccc2/C1=C1/Nc2ccccc2/C1=N\O	75.1%
CS(=O)c1ccc(-c2nc(-c3ccc(F)cc3)c(-c3ccncc3)[nH]2)cc1 (stereo unspecified)	95.2%

molecular target: FYN (human) (UniProt P06241); assay: as above; details: compound 0.5 µM; ATP 10 µM
Sequence (P06241 whole entry, looked up): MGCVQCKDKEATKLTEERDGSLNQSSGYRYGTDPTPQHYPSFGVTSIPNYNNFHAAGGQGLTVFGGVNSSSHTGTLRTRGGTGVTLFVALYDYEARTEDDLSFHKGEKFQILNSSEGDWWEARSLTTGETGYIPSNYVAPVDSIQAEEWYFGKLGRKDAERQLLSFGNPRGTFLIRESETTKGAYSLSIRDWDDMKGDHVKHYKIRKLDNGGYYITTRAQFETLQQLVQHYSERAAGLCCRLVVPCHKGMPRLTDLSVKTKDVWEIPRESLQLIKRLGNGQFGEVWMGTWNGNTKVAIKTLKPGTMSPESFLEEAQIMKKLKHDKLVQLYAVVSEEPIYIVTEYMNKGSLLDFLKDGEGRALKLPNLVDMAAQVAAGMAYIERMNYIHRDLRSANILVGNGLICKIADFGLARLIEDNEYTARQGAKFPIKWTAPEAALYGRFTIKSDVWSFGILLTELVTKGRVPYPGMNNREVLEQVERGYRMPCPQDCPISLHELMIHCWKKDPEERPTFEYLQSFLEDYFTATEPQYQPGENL

Compound	residual activity
CCN1/C(=C/C(C)=O)Sc2ccc(OC)cc21	99.1%
COc1ccc(-c2cnc3c(-c4ccsc4)cnn3c2)cc1	86.3%
C#Cc1cccc(Nc2ncnc3cc(OCCOC)c(OCCOC)cc23)c1	94.7%
O=C1Nc2cc(Br)ccc2/C1=C1/Nc2ccccc2/C1=N\O	5.05%
CS(=O)c1ccc(-c2nc(-c3ccc(F)cc3)c(-c3ccncc3)[nH]2)cc1 (stereo unspecified)	89.8%

molecular target: AXL (human) (UniProt P30530); assay: as above; details: compound 0.5 µM; ATP 10 µM
Sequence (P30530 whole entry, looked up): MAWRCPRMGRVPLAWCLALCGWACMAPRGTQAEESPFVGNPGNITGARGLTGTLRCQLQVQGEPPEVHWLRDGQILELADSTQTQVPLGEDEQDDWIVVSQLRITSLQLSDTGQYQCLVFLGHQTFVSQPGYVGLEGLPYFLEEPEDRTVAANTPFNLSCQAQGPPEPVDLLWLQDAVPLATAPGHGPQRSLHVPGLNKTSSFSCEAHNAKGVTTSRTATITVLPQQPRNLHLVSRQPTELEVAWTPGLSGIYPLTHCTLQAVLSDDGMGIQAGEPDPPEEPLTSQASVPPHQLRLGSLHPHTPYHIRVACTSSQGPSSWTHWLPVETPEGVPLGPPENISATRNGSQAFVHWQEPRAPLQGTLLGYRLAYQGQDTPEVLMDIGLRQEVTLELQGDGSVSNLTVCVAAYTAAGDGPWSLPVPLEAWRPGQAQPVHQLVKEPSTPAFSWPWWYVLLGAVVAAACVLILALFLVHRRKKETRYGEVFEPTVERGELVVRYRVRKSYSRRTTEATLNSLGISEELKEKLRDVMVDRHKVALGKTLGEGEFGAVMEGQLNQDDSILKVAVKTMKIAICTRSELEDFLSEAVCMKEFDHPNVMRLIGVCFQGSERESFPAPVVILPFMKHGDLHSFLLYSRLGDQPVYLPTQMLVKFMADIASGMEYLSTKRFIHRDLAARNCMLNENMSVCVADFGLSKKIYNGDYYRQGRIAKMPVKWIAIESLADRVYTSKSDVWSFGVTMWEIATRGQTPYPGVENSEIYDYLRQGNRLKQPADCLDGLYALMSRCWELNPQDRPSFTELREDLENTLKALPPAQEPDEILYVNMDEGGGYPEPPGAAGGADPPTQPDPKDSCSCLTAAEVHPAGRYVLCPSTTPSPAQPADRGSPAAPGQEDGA

Compound	residual activity
CCN1/C(=C/C(C)=O)Sc2ccc(OC)cc21	105%
COc1ccc(-c2cnc3c(-c4ccsc4)cnn3c2)cc1	96.7%
O=C1Nc2cc(Br)ccc2/C1=C1/Nc2ccccc2/C1=N\O	57.7%
CS(=O)c1ccc(-c2nc(-c3ccc(F)cc3)c(-c3ccncc3)[nH]2)cc1 (stereo unspecified)	101%

molecular target: RPS6KA4 KD2 (human) (UniProt O75676); assay: as above; details: compound 0.5 µM; ATP 10 µM

Compound	residual activity
CCN1/C(=C/C(C)=O)Sc2ccc(OC)cc21	91.8%
COc1ccc(-c2cnc3c(-c4ccsc4)cnn3c2)cc1	98.7%
O=C1Nc2cc(Br)ccc2/C1=C1/Nc2ccccc2/C1=N\O	56.1%
CS(=O)c1ccc(-c2nc(-c3ccc(F)cc3)c(-c3ccncc3)[nH]2)cc1 (stereo unspecified)	99.6%

molecular target: CSNK2A1 (human) (UniProt P68400); assay: as above; details: compound 0.5 µM; ATP 10 µM
Sequence (P68400 whole entry, looked up): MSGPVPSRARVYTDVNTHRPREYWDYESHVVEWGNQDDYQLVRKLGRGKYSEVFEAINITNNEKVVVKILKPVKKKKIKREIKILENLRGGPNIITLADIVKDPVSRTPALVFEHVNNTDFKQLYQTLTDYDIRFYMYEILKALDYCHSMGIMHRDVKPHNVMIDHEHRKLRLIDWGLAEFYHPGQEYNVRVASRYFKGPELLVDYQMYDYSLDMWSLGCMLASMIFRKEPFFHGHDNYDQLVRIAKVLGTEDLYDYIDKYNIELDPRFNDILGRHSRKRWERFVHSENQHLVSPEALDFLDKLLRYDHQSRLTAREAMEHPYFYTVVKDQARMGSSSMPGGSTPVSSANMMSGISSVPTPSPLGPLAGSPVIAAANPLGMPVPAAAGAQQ

Compound	residual activity
CCN1/C(=C/C(C)=O)Sc2ccc(OC)cc21	98.1%
COc1ccc(-c2cnc3c(-c4ccsc4)cnn3c2)cc1	101%
C#Cc1cccc(Nc2ncnc3cc(OCCOC)c(OCCOC)cc23)c1	78.9%
O=C1Nc2cc(Br)ccc2/C1=C1/Nc2ccccc2/C1=N\O	82.2%
CS(=O)c1ccc(-c2nc(-c3ccc(F)cc3)c(-c3ccncc3)[nH]2)cc1 (stereo unspecified)	86.2%

molecular target: PDGFRA (human) (UniProt P16234); assay: as above; details: compound 0.5 µM; ATP 10 µM

Compound	residual activity
CCN1/C(=C/C(C)=O)Sc2ccc(OC)cc21	105%
COc1ccc(-c2cnc3c(-c4ccsc4)cnn3c2)cc1	74.8%
C#Cc1cccc(Nc2ncnc3cc(OCCOC)c(OCCOC)cc23)c1	84.4%
O=C1Nc2cc(Br)ccc2/C1=C1/Nc2ccccc2/C1=N\O	68.4%
CS(=O)c1ccc(-c2nc(-c3ccc(F)cc3)c(-c3ccncc3)[nH]2)cc1 (stereo unspecified)	98.8%

molecular target: BMX (human) (UniProt P51813); assay: as above; details: compound 0.5 µM; ATP 10 µM
Sequence (P51813 whole entry, looked up): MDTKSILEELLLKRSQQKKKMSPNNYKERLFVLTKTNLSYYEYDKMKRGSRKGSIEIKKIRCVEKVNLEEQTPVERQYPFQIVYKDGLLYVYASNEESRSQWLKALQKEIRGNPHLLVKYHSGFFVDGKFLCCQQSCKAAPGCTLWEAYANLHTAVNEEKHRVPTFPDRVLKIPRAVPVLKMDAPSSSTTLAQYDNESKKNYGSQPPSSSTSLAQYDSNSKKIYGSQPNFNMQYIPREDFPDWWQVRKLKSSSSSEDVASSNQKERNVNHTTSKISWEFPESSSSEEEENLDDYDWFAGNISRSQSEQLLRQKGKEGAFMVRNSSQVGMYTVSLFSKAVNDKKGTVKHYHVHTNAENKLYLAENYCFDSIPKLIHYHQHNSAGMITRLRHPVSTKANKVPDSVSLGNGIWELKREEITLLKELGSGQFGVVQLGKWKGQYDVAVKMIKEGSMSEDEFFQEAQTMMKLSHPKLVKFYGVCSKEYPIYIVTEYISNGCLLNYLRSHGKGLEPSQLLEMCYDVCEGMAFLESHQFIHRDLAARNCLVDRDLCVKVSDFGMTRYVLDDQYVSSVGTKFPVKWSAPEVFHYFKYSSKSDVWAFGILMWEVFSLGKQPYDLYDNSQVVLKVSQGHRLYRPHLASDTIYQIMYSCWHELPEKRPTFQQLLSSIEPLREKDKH

Compound	residual activity
CCN1/C(=C/C(C)=O)Sc2ccc(OC)cc21	105%
COc1ccc(-c2cnc3c(-c4ccsc4)cnn3c2)cc1	90.6%
C#Cc1cccc(Nc2ncnc3cc(OCCOC)c(OCCOC)cc23)c1	100%
O=C1Nc2cc(Br)ccc2/C1=C1/Nc2ccccc2/C1=N\O	29.2%
CS(=O)c1ccc(-c2nc(-c3ccc(F)cc3)c(-c3ccncc3)[nH]2)cc1 (stereo unspecified)	94.4%

molecular target: RPS6KA2 KD1 KD2 (human) (UniProt Q15349); assay: as above; details: compound 0.5 µM; ATP 10 µM

Compound	residual activity
CCN1/C(=C/C(C)=O)Sc2ccc(OC)cc21	83.3%
COc1ccc(-c2cnc3c(-c4ccsc4)cnn3c2)cc1	87.5%
C#Cc1cccc(Nc2ncnc3cc(OCCOC)c(OCCOC)cc23)c1	101%
O=C1Nc2cc(Br)ccc2/C1=C1/Nc2ccccc2/C1=N\O	33.7%
CS(=O)c1ccc(-c2nc(-c3ccc(F)cc3)c(-c3ccncc3)[nH]2)cc1 (stereo unspecified)	102%

molecular target: SRC (human) (UniProt P12931); assay: as above; details: compound 0.5 µM; ATP 10 µM
Sequence (P12931 whole entry, looked up): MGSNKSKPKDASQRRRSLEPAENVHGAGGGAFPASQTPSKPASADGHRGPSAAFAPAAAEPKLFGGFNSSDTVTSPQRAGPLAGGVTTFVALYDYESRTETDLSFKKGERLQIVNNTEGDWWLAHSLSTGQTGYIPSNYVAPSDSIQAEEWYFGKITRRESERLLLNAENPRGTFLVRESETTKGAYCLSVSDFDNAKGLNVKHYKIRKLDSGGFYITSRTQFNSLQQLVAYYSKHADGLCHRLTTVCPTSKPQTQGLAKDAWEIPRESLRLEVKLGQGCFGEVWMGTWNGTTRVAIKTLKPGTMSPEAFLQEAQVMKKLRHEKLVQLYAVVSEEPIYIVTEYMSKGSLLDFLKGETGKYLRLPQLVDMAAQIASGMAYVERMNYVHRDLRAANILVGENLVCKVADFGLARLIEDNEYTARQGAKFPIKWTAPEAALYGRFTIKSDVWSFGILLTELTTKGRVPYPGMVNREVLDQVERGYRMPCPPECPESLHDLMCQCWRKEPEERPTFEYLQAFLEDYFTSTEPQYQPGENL

Compound	residual activity
CCN1/C(=C/C(C)=O)Sc2ccc(OC)cc21	94.4%
COc1ccc(-c2cnc3c(-c4ccsc4)cnn3c2)cc1	91.7%
C#Cc1cccc(Nc2ncnc3cc(OCCOC)c(OCCOC)cc23)c1	77.4%
O=C1Nc2cc(Br)ccc2/C1=C1/Nc2ccccc2/C1=N\O	7.64%
CS(=O)c1ccc(-c2nc(-c3ccc(F)cc3)c(-c3ccncc3)[nH]2)cc1 (stereo unspecified)	92.6%

molecular target: MAPK10 (human) (UniProt P53779); assay: as above; details: compound 0.5 µM; ATP 10 µM
Sequence (P53779 whole entry, looked up): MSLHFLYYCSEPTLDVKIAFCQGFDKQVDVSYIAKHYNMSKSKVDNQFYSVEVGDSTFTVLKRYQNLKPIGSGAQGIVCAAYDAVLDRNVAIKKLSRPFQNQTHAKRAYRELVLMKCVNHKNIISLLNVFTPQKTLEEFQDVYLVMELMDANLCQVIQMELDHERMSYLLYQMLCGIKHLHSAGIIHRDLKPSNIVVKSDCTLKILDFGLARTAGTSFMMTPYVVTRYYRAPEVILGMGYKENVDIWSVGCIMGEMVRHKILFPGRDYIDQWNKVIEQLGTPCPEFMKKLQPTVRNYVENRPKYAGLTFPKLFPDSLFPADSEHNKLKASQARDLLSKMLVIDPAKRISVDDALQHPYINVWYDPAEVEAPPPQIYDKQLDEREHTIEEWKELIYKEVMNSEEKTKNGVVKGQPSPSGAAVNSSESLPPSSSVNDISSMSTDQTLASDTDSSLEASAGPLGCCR

Compound	residual activity
CCN1/C(=C/C(C)=O)Sc2ccc(OC)cc21	102%
O=C1Nc2cc(Br)ccc2/C1=C1/Nc2ccccc2/C1=N\O	97.9%
CS(=O)c1ccc(-c2nc(-c3ccc(F)cc3)c(-c3ccncc3)[nH]2)cc1 (stereo unspecified)	114%
